Experimental data as given in patent US12325696B2, “Indazole derivative, preparation method therefor, and pharmaceutical application thereof” (JIANGSU HENGRUI MEDICINE CO., LTD., priority 2019, dated 2025).
pIC50: −log10 of the molar value.

What was measured:
Type in all cases: cell-based
MCF7 D538G = experiment: Inhibition of proliferation of MCF7 cell expressing ERα D538G mutant; details: Homo sapiens, 144 hours; for Emax: read-out: Maximum inhibition
Source text: (§1) The mutants ERα Y537S and ERα D538G of human estrogen receptor α (ERαs) protein were obtained by site-directed mutagenesis using the cDNA of wild-type ESR1 gene (Accession No. NM000125) as a template according to double-primer PCR. The primer sequences used for mutagenesis are as follows (the nucleotides underlined are the sites of mutagenesis):
(§2) The cDNA of mutant ESR1 was cloned into the target lentiviral vector pCDH-CMV-MCS-EF1-Puro (SBI, CD510B-1). The lentiviral plasmid with the mutant ESR1 gene sequence and the lentiviral packaging plasmids pVSV-G and pCMV-dR8.91 (SBI, LV500A-1) were transfected into HEK-293T cells (ATCC, CRL-3216) by Lipofectamine 3000 Transfection Reagent (ThermoFisher Scientific, Cat #L3000075). 48 hours after the transfection, the supernatant of the virus-containing DMEM high-glycemic medium (GE Healthcare, SH30243.01) containing 10% FBS was filtered, and ultracentrifuged to obtain the virus pellet. The virus pellet was resuspended in an appropriate amount of MEM medium (GE Healthcare, SH30024.01) containing 10% FBS, non-essential amino acids (SIGMA, M7145-100ML) and sodium pyruvate (SIGMA, S8636-100ML), and the resulting suspension was added to MCF7 cells (ATCC, HTB-22). Polybrene (SIGMA, H9268-5G) at a final concentration of 8 µg/ml was added, and the cells were incubated overnight. Two days after the transfection, […] puromycin (invitrogen, A11138-03) was added to the cell culture medium for resistance screening. After about two weeks, the MCF7 cell line capable of stably expressing ERαY537S and ERα D538G mutants was obtained.
(§3) MCF7 cells expressing ERα mutant were cultured in MEM (GE Healthcare, SH30024.01) complete medium containing 10% fetal bovine serum. On the first day of the experiment, the cells were seeded in a 96-well plate with the complete medium at a density of 3,000 cells/well (100 μl of cell suspension per well), and the plate was incubated in a cell incubator at 37° C. and 5% CO2 overnight. On the second day, the medium in each well was replaced with 135 μl of MEM incomplete medium containing 2% fetal bovine serum. 15 μl of test compound solution of different concentrations formulated with the incomplete medium was added to each well, wherein the final concentrations of the compound were nine concentration points obtained by a 4-fold gradient dilution starting from 100 nM. A blank control containing 0.500 DMSO was set. The plate was incubated in a cell incubator at 37° C. and 500 CO2 for 144 hours. On the eighth day, the 96-well plate was taken out, and 150 of CellTiter-Glo® Luminescent Cell Viability Assay (Promega, G7573) was added to each well. The plate was left to stand at room temperature for 10 minutes, and the luminescence signal values were measured using a multi-label microplate reader (PerkinElmer, VICTOR 3). The IC50 values of the inhibitory activity of the compounds were calculated based on the concentrations and luminescence signal values of the compounds using Graphpad Prism software.

MCF7 cell = experiment: Inhibition of proliferation of MCF7 cell (CellTiter-Glo, 144 hours); details: Homo sapiens; for pIC50: MCF7, CellTiter-Glo, read-out: IC50 of the inhibitory effect on the proliferation of MCF7 cell; for Emax: MCF7 cell proliferation, read-out: Maximum inhibition
Procedure: as §3, with “cells (ATCC, HTB-22)” for “cells expressing ERα mutant”, “experiment, MCF7” for “experiment, the”, “containing 0.5%” for “containing 0.500”, “and 5%” for “and 500”, “150 μl” for “150”
A graph of the chemiluminescence signal values versus the logarithmic concentrations of the compound was made using Graghpad Prism to obtain the IC50 values of the compound.

[1] = tested on: estrogen receptor reporter gene; experiment: Inhibition of estrogen receptor reporter gene activity (ERE-luc luciferase) in MCF7/ERE-luc cells; details: Homo sapiens, 0.1 nM β-estradiol, 20 hours, read-out: IC50 of inhibitory activity on the activity of the estrogen receptor reporter gene
Procedure: MCF7 cells MCF7/ERE-luc (ATCC, HTB-22) expressing the luciferase reporter gene ERE-luc (synthesized by GENEWIZ, Inc.) controlled by the estrogen receptor response element were cultured in MEM (GE Healthcare, SH30024.01) medium containing 10% fetal bovine serum and 500 µg/ml G418. On the first day of the experiment, MCF7/ERE-luc cells were seeded in a 96-well plate with incomplete MEM medium containing 10% fetal bovine serum treated with activated charcoal (BioSun, BS-0004-500) at a density of 30,000 cells/well (100 μl of cell suspension per well), and the plate was incubated in a cell incubator at 37° C. and 5% CO2 overnight. On the second day, 10 μl of β-estradiol (SIGMA, E2758-250MG) solution formulated with the above incomplete medium or test compound solution of different concentrations formulated with the above incomplete medium was added to each well, wherein the final concentration of β-estradiol was 0.1 nM, and the final concentrations of the compound were nine concentration points obtained by a 10-fold gradient dilution starting from 10 μM, a blank control containing 0.5% DMSO was set, and the plate was incubated in a cell incubator at 37° C. and 5% CO2 for 20 hours. On the third day, the 96-well plate was taken out, and 100 μl of ONE-Glo™ Luciferase Assay system (Promega, E6110) was added to each well to determine the activity of luciferase. The plate was left to stand at room temperature for 3 minutes until the cells were fully lysed, and the luminescence signal values were measured using a multi-label microplate reader (PerkinElmer, VICTOR 3). The IC50 values of the inhibitory activity of the compounds were calculated using Graphpad Prism software based on the concentrations and luminescence signal values of the compounds.
The inhibitory effect of the compounds of the present disclosure on the activity of the estrogen receptor reporter gene was determined by the above test. A graph of the chemiluminescence signal values versus the logarithmic concentrations of the compound was made using Graghpad Prism.

MCF7 ERαY537S = experiment: Inhibition of proliferation of MCF7 cell expressing ERα Y537S mutant; details: Homo sapiens, 144 hours; for Emax: read-out: Maximum inhibition
Source text: as §1, §2, §3

Structure (SMILES) | pIC50 (MCF7 D538G) | Emax (MCF7 D538G) [%] | pIC50 (MCF7 cell) | Emax (MCF7 cell) [%] | pIC50 [1] | pIC50 (MCF7 ERαY537S) | Emax (MCF7 ERαY537S) [%]
CC(C)(C)NC(=O)/C=C/CN1CCC[C@@H](Oc2ccc(/C(=C(/CC(F)(F)F)c3ccccc3)c3ccc4[nH]nc(F)c4c3)cn2)C1 [Example 16, (E)-N-(Tert-butyl)-4-((R)-3-((5-((Z)-4,4,4-trifluoro-1-(3-fluoro-1H-indazol-5-yl)-2-phenylbut-1-en-1-yl)pyridin-2-yl)oxy)piperidin-1-yl)but-2-enamide] | 8.70 | 110 | 9.10 | 102 | 8.30 | 8.40 | 88
CN(C)C(=O)/C=C/CN1CCC(Nc2ccc(/C(=C(/CC(F)(F)F)c3ccccc3)c3ccc4[nH]nc(F)c4c3)cn2)CC1 [Example 33, (E)-N,N-Dimethyl-4-(4-((5-((Z)-4,4,4-trifluoro-1-(3-fluoro-1H-indazol-5-yl)-2-phenylbut-1-en-1-yl)pyridin-2-yl)amino)piperidin-1-yl)but-2-enamide] | 9.00 | 106 | 9.52 | 105 | 8.52 | 8.70 | 105
O=C(/C=C/CN1CCC[C@@H](Oc2ccc(/C(=C(/CC(F)(F)F)c3ccccc3)c3ccc4[nH]nc(F)c4c3)cn2)C1)NC1CCCC1 [Example 17, (E)-N-Cyclopentyl-4-((R)-3-((5-((Z)-4,4,4-trifluoro-1-(3-fluoro-1H-indazol-5-yl)-2-phenylbut-1-en-1-yl)pyridin-2-yl)oxy)piperidin-1-yl)but-2-enamide] | 8.52 | 104 | 9.22 | 96 | 8.22 | 8.52 | 102
CN(C)C(=O)/C=C/CNC1CCN(c2ccc(/C(=C(/CC(F)(F)F)c3ccccc3)c3ccc4[nH]nc(F)c4c3)cn2)CC1 [Example 36, (E)-N,N-Dimethyl-4-((1-(5-((Z)-4,4,4-trifluoro-1-(3-fluoro-1H-indazol-5-yl)-2-phenylbut-1-en-1-yl)pyridin-2-yl)piperidin-4-yl)amino)but-2-enamide] | 8.70 | 99 | 9.30 | 104 | 8.30 | 8.52 | 100
CN(C)C(=O)/C=C/CN1CC[C@@H](Oc2ccc(/C(=C(/CC(F)(F)F)c3ccccc3)c3ccc4[nH]nc(F)c4c3)cn2)C1 [Example 29, (E)-N,N-Dimethyl-4-((R)-3-((5-((Z)-4,4,4-trifluoro-1-(3-fluoro-1H-indazol-5-yl)-2-phenylbut-1-en-1-yl)pyridin-2-yl)oxy)pyrrolidin-1-yl)but-2-enamide] | 8.52 | 93 | 9.40 | 93 | 8.52 | 8.70 | 93
CC#CC(=O)N1CCC[C@@H](Oc2ccc(/C(=C(/CC(F)(F)F)c3ccccc3)c3ccc4[nH]nc(F)c4c3)cn2)C1 [Example 25, (R,Z)-1-(3-((5-(4,4,4-Trifluoro-1-(3-fluoro-1H-indazol-5-yl)-2-phenylbut-1-en-1-yl)pyridin-2-yl)oxy)piperidin-1-yl)but-2-yn-1-one] | 9.00 | 112 | 9.30 | 109 | 8.52 | 9.00 | 107
CNC(=O)/C=C/CN1CCC[C@@H](Oc2ccc(/C(=C(/CC(F)(F)F)c3ccccc3)c3ccc4[nH]nc(F)c4c3)cn2)C1 [Example 11, (E)-N-Methyl-4-((R)-3-((5-((Z)-4,4,4-trifluoro-1-(3-fluoro-1H-indazol-5-yl)-2-phenylbut-1-en-1-yl)pyridin-2-yl)oxy)piperidin-1-yl)but-2-enamide] | 9.00 | 100 | 9.30 | 110 | 8.52 | 8.70 | 107
CN(C)C(=O)/C=C/CN(C)[C@H]1CCCN(c2ccc(/C(=C(/CC(F)(F)F)c3ccccc3)c3ccc4[nH]nc(F)c4c3)cn2)C1 [Example 37, (E)-N,N-Dimethyl-4-(methyl((S)-1-(5-((Z)-4,4,4-trifluoro-1-(3-fluoro-1H-indazol-5-yl)-2-phenylbut-1-en-1-yl)pyridin-2-yl)piperidin-3-yl)amino)but-2-enamide] | 8.70 | 101 | 9.10 | 98 | 8.10 | 8.52 | 86
CN(C)C(=O)/C=C/CN(C)C1(COc2ccc(/C(=C(/CC(F)(F)F)c3ccccc3)c3ccc4[nH]nc(F)c4c3)cn2)CC1 [Example 5, (E)-N,N-Dimethyl-4-(methyl(1-(((5-((Z)-4,4,4-trifluoro-1-(3-fluoro-1H-indazol-5-yl)-2-phenylbut-1-en-1-yl)pyridin-2-yl)oxy)methyl)cyclopropyl)amino)but-2-enamide] | 9.70 | 98 | 10.00 | 96 | 8.52 | 9.52 | 107
CC#CC(=O)N1CCC(Oc2ccc(/C(=C(/CC(F)(F)F)c3ccccc3)c3ccc4[nH]nc(F)c4c3)cn2)CC1 [Example 10, (Z)-1-(4-((5-(4,4,4-Trifluoro-1-(3-fluoro-1H-indazol-5-yl)-2-phenylbut-1-en-1-yl)pyridin-2-yl)oxy)piperidin-1-yl)but-2-yn-1-one] | 8.40 | 104 | 9.52 | 104 | 8.10 | 8.15 | 86
